Drawing on ChEMBL document CHEMBL1131982, “N-[2-(1-cyclohexenyl)ethyl]-N'-[2-(5-bromopyridyl)]-thiourea and N'-[2-(1-cyclohexenyl)ethyl]-N'-[2-(5-chloropyridyl)]-thiourea as potent inhibitors of multidrug-resistant human immunodeficiency virus-1” (Bioorg Med Chem Lett, 1999), this text covers IC50 and CC50 for 10 compounds.

Usually IC50 stands for the point on the concentration scale where inhibition reaches its midpoint. One may read the CC50 as the concentration at which the toxic effect on the cells reaches its halfway point. Lower therefore signals greater toxicity to the cells.

In experiment [1] the target is Human immunodeficiency virus type 1 reverse transcriptase (Human immunodeficiency virus 1, UniProt Q72547). Put plainly: Inhibitory activity against recombinant HIV-1 reverse transcriptase (rRT).
Experiment [2] is described as follows: Compound was evaluated for the cytotoxic activity by using Microculture Tetrazolium assay (MTA). Type of experiment: functional.
Experiment [3] is described as follows: Anti-HIV activity by its ability to inhibit the replication of HIV-1 strain RT-MDR(V106A) in peripheral blood mononuclear cells (PBMC). Type of experiment: functional. The settings on record: Homo sapiens.
The nature of experiment [4]: Anti-HIV activity by its ability to inhibit the replication of HIV-1 strain A17 (Y181C) in peripheral blood mononuclear cells (PBMC). Type of experiment: functional. The settings on record: Homo sapiens.
The nature of experiment [5]: Anti-HIV activity by its ability to inhibit the replication of HIV-1 strain HTLV IIIB in peripheral blood mononuclear cells (PBMC). Type of experiment: functional. Particulars: Homo sapiens.
Experiment [6] is described as follows: Anti-HIV activity by its ability to inhibit the replication of HIV-1 strain A17 variant (Y181C,K103N) in peripheral blood mononuclear cells (PBMC). Type of experiment: functional, Homo sapiens.

Where only a bound is given, the exact number is not on record here.

With `CC1(C)C2CC(C/N=C(\S)Nc3ccc(Br)cn3)CC1C2` (stereo not given), the 50% inhibitory concentration (IC50) in experiment [1] is greater than 100000 nM.

In experiment [2], `S=C(NCCC1=CCCCC1)Nc1ccc(Cl)cn1` gave a CC50 greater than 100000 nM. Also, the IC50 in experiment [3] was 1 nM; in experiment [4], 68 nM; in experiment [1] it was 500 nM; in experiment [5], 3 nM; in experiment [6], 30000 nM.

For the compound `FC(F)(F)c1ccc(/N=C(\S)NCCC2=CCCCC2)nc1`, the CC50 in experiment [2] was greater than 100000 nM. The IC50 is 38 nM in experiment [3]; 300 nM in experiment [4]; 4000 nM in experiment [1]; 79 nM in experiment [5]; greater than 100000 nM in experiment [6].

For the compound `S=C(NCC12CC3CC(CC(C3)C1)C2)Nc1ccc(Br)cn1`, the IC50 in experiment [1] was greater than 100000 nM.

`S=C(NCCC1=CCCCC1)Nc1ccc(Br)cn1`: in experiment [2], the CC50 was greater than 100000 nM. In addition, the IC50 was determined as 1 nM in experiment [3], 400 nM in experiment [1], 3 nM in experiment [5] and 18700 nM in experiment [6].

`CC(C)Nc1cccnc1N1CCN(C(=O)c2cc3cc(NS(C)(=O)=O)ccc3[nH]2)CC1` [DELAVIRDINE]: in experiment [2], the CC50 was 3600 nM. The IC50 in experiment [3] is 400 nM; in experiment [4], 50000 nM; in experiment [5] it was 9 nM; in experiment [6] it was greater than 100000 nM.

For `CCOCn1c(Cc2ccccc2)c(C(C)C)c(=O)[nH]c1=O` [EMIVIRINE], the CC50 in experiment [2] is greater than 100000 nM. For the same compound, the IC50 in experiment [3] stood at 300 nM.

`Cc1ccnc2c1NC(=O)c1cccnc1N2C1CC1` [NEVIRAPINE] came in with a CC50 in experiment [2] of 10500 nM. The IC50 is 5000 nM in experiment [3], greater than 100000 nM in experiment [4], 34 nM in experiment [5] and greater than 100000 nM in experiment [6].

In experiment [2], `S=C(NCCc1ccccn1)Nc1ccc(Br)cn1` [TROVIRDINE] showed a CC50 greater than 100000 nM. For the same compound, the IC50 is 20 nM in experiment [3], 500 nM in experiment [4], 7 nM in experiment [5] and greater than 100000 nM in experiment [6].

The compound `Cc1cn([C@H]2C[C@H](N=[N+]=[N-])[C@@H](CO)O2)c(=O)[nH]c1=O` [ZIDOVUDINE] yielded a CC50 in experiment [2] greater than 100000 nM. The IC50 in experiment [3] is 200 nM; in experiment [4] it was 6 nM; in experiment [6], 4 nM.
